# USRE47589E1, “Phosphoramidate compounds and methods of use” (NuCana plc, priority 2003, dated 2019)
# Entries after “also recorded” stand apart in the source; their conditions may differ.
# What was measured:
# [1] = system: HIV-1; settings: cited from earlier work; for EC50: d4T phosphoramidates, prior art, read-out: 50% effective doses vs HIV-1
# [2] = system: prostrate PC3 xenograft; assay: Mouse xenograft of human cancer, prostate tumour volume; assay type: in vivo; settings: daily dosing, CPF31 at 5 and 10 μM (3 and 6 μg/ml), gemcitabine at highest non-toxic concentration
# Protocol: (§3) Mice were dosed daily at a range of concentrations (0.01-10 μM) and tumour volume assessed versus control.
# [3] = system: colon HT115 xenograft; assay: Mouse xenograft of human cancer, colon tumour volume; assay type: in vivo; settings: for reducing colon tumour volume relative to control: daily dosing, CPF31 at 5 and 10 μM (3 and 6 μg/ml), gemcitabine at highest non-toxic concentration
# Protocol: as §3
# [4] = system: human prostate cancer cell line (PC-3); assay: MTT cytotoxicity assay, prostate cancer cell line; assay type: cell-based; settings: for EC50: Homo sapiens, read-out: EC50/μM Prostate PC-3
# Protocol: (§1) The compounds include those whose preparations are described above and compounds made by preparative methods corresponding to the methods described above.
# (§2) Compounds were diluted over a range of concentrations and added to cells over 1 to 3 days. The cytotoxity was determined using a MTT assay at the end of each experiment.
# [5] = system: human breast cancer cell line (MDA MB 231); assay: MTT cytotoxicity assay, breast cancer cell line; assay type: cell-based; settings: for EC50: Homo sapiens, MDA-MB-231, read-out: EC50/μM Breast MDA MB231
# Protocol: as §1, §2
# [6] = Toxicity in mouse xenograft model (body mass loss, incident-free survival)
# Protocol: as §3
# (§4) Kaplan-Meier statistics were computed regarding incident-free survival.
# [7] = system: human colon cancer cell line (HT115); assay: MTT cytotoxicity assay, colon cancer cell line; assay type: cell-based; settings: for EC50: Homo sapiens, HT115, read-out: EC50/μM Colon HT115, MTT assay, compounds added to cells over 1 to 3 days; for concentration found to be active in vitro, colon cell line: same colon cell line (HT115)
# Protocol: as §1, §2
# [8] = in vivo, 13 day
# Protocol: as §3, §4
compound,measurement,setting,value
COC(=O)C(C)NP(=O)(OCC1C=CC(n2cc(C)c(=O)[nH]c2=O)O1)Oc1ccccc1 (stereo not shown) [(9)],EC50,[1],0.075 µM
Cc1cn(C2C=CC(COP(=O)(NC(C)C(=O)OCc3ccccc3)Oc3ccccc3)O2)c(=O)[nH]c1=O (stereo not shown) [(10)],potency boost of (10) over (9),"[1]; equivalent phosphoramidates of d4T, McGuigan et al, AVCC, 1998",~4 fold
COC(=O)C(C)(C)NP(=O)(OCC1C=CC(n2cc(C)c(=O)[nH]c2=O)O1)Oc1ccccc1 (stereo not shown) [(12)],EC50,[1],0.29 µM
COC(=O)C(C)NP(=O)(OCC1C=CC(n2cc(C)c(=O)[nH]c2=O)O1)Oc1ccc(C(F)(F)F)cc1 (stereo not shown) [(13)],EC50,[1],0.01 µM
"C[C@H](NP(=O)(OC[C@H]1O[C@@H](n2ccc(N)nc2=O)C(F)(F)C1O)Oc1ccccc1)C(=O)OCc1ccccc1 (stereo partly drawn) [Example 31, Gemcitabine-[phenyl-(benzoxy-L-alaninyl)]-phosphate]",reducing prostate tumour volume relative to control,[2],significantly effective
same,activity in reducing colon tumour volume in vivo at 5 μM (FIG. 4),"[3]; 5 μM, day 24, versus Gemzar",greater activity
same,reducing colon tumour volume relative to control,[3],significantly effective
same,EC50,[4],0.22 µM
same,EC50,[5],42.6 µM
same,"animals showing serious toxicity (10% body mass loss), day 10","[6]; 5 and 10 μM groups combined, day 10",3 animals
same,"animals showing serious toxicity (10% body mass loss), day 11, collectively","[6]; 5 and 10 μM groups combined, day 11",1 animals
same,"animals showing serious toxicity (10% body mass loss), day 13","[6]; 5 and 10 μM groups combined, day 13",1 animals
same,"toxicity compared with gemcitabine (Gemzar, GMZ)","[6]; mouse xenograft, weight loss based, Kaplan-Meier / Cox analysis, listed as CPF31",significantly less toxic; also recorded: substantially lower toxicity; also recorded: far less toxic
same,EC50,[7],5.7 µM
same,"concentration found to be active in vitro, colon cell line",[7],5 µM
"CC(C)(NP(=O)(OC[C@H]1O[C@@H](n2cc(/C=C/Br)c(=O)[nH]c2=O)CC1O)Oc1ccc([N+](=O)[O-])cc1)C(=O)OCc1ccccc1 (stereo partly drawn) [Example 47, (E)-5-(2-bromovinyl)-2′-deoxyuridine-5′-[4-nitrophenyl-(benzoxy-α,α-dimethylglycinyl)]-phosphate]",EC50,[4],27.2 µM
same,EC50,[5],4.5 µM
same,EC50,[7],16.7 µM
"CC(C)(NP(=O)(OCC1OC(n2cc(/C=C/Br)c(=O)[nH]c2=O)CC1O)Oc1ccc(C(F)(F)F)cc1)C(=O)OCc1ccccc1 (stereo not drawn) [Example 48, (E)-5-(2-bromovinyl)-2′-deoxyuridine-5′-[para-(trifluoromethyl)phenyl-(benzoxy-α,α-dimethylglycinyl)]-phosphate]",EC50,[4],0.61 µM
same,"times more potent than (7), prostate cancer cell line PC-3",[4]; ratio versus methyl ester (7),254 fold
same,EC50,[5],1.3 µM
same,"fold more active than (7), breast cancer",[5]; ratio versus methyl ester (7),60 fold
same,EC50,[7],7 µM
same,"times more potent than (7), colon cancer cell line HT115",[7]; ratio of 50% growth inhibition concentrations versus methyl ester (7),35 fold
"Nc1ccn([C@@H]2O[C@H](CO)[C@@H](O)C2(F)F)c(=O)n1 [Example G, gemcitabine, reference compound]",reducing prostate tumour volume relative to control,[2],not effective
same,reducing colon tumour volume relative to control,[3],not effective
same,EC50,[4],3.12 µM
same,toxic concentration in mouse xenograft (FIG. 1),[8],above 1 μM
same,EC50,[5],2.8 µM
same,EC50,[7],606 µM
same,"concentration found to be active in vitro, colon cell line",[7],600 µM
